In ChEMBL document CHEMBL1201862, “PubChem BioAssay data set” (2004):
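Interpolation was linear, between the two tested concentrations surrounding the appropriate level; five concentrations were tested over 48 hours in 96-well plates. Abbreviation: GI50, concentration required for 50% inhibition of growth.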 Calls of active or inactive are those of the source. Cut-off read from the data, not from the text of the source: active = GI50 up to about 1.1 µM and inactive = higher.

Tests used:
Test in all cases: growth of human tumour cells (NCI), 48 h
786-0 = system: 786-0
A498 = system: A498
A549 = system: A549
ACHN = system: ACHN
BT-549 = system: BT-549
CAKI-1 = system: CAKI-1
CCRF-CEM = system: CCRF-CEM
COLO 205 = system: COLO 205
DU-145 = system: DU-145
EKVX = system: EKVX
HCC 2998 = system: HCC 2998
HCT-116 = system: HCT-116
HCT-15 = system: HCT-15
HL-60 = system: HL-60
HOP-62 = system: HOP-62
HOP-92 = system: HOP-92
HT-29 = system: HT-29
Hs-578T = system: Hs-578T
IGROV-1 = system: IGROV-1
KM12 = system: KM12
LOX IMVI = system: LOX IMVI
M14 = system: M14
MCF7 = system: MCF7
MDA-MB-231 = system: MDA-MB-231
MDA-MB-435 = system: MDA-MB-435
MDA-N = system: MDA-N
Malme-3M = system: Malme-3M
NCI-H226 = system: NCI-H226
NCI-H23 = system: NCI-H23
NCI-H460 = system: NCI-H460
NCI-H522 = system: NCI-H522
NCI/ADR-RES = system: NCI/ADR-RES
OVCAR-3 = system: OVCAR-3
OVCAR-4 = system: OVCAR-4
OVCAR-5 = system: OVCAR-5
OVCAR-8 = system: OVCAR-8
PC-3 = system: PC-3
RPMI-8226 = system: RPMI-8226
SF-268 = system: SF-268
SF-295 = system: SF-295
SF-539 = system: SF-539
SK-MEL-28 = system: SK-MEL-28
SK-MEL-2 = system: SK-MEL-2
SK-MEL-5 = system: SK-MEL-5
SK-OV-3 = system: SK-OV-3
SN12C = system: SN12C
SNB-19 = system: SNB-19
SNB-75 = system: SNB-75
SR = system: SR
SW-620 = system: SW-620
T47D = system: T47D
TK-10 = system: TK-10
U-251 = system: U-251
UACC-257 = system: UACC-257
UACC-62 = system: UACC-62
UO-31 = system: UO-31
K562 = system: K562
MOLT-4 = system: MOLT-4
RXF 393 = system: RXF 393

In the case of `CC(=O)Nc1ccc(Nc2nc(=O)[nH]c(=O)[nH]2)cc1`, the GI50 (786-0) is reported as > 100 µM (inactive), the GI50 (A498) is reported as > 100 µM (inactive) and the GI50 (A549) is reported as > 100 µM (inactive). For the same molecule, the GI50 (ACHN) was > 100 µM (inactive), the GI50 (BT-549) was > 100 µM (inactive) and the GI50 (CAKI-1) was > 100 µM (inactive). For the same molecule, the GI50 (CCRF-CEM) was > 100 µM (inactive), the GI50 (COLO 205) was > 100 µM (inactive) and the GI50 (DU-145) was > 100 µM (inactive). For the same molecule, the GI50 (EKVX) was > 100 µM (inactive), the GI50 (HCC 2998) was > 100 µM (inactive) and the GI50 (HCT-116) was > 100 µM (inactive). The GI50 (HCT-15) was > 100 µM, the GI50 (HL-60) was > 100 µM (inactive) and the GI50 (HOP-62) was > 100 µM (inactive). For the same molecule, the GI50 (HOP-92) was > 100 µM (inactive), the GI50 (HT-29) was > 100 µM (inactive) and the GI50 (Hs-578T) was > 100 µM (inactive). For the same molecule, the GI50 (IGROV-1) was > 100 µM (inactive), the GI50 (KM12) was > 100 µM (inactive) and the GI50 (LOX IMVI) was > 100 µM (inactive). The GI50 (M14) was > 100 µM (inactive), the GI50 (MCF7) was > 100 µM (inactive) and the GI50 (MDA-MB-231) was > 100 µM (inactive). The GI50 (MDA-MB-435) was > 100 µM (inactive), the GI50 (MDA-N) was > 100 µM (inactive) and the GI50 (Malme-3M) was > 100 µM (inactive). The GI50 (NCI-H226) was > 100 µM (inactive), the GI50 (NCI-H23) was > 100 µM (inactive) and the GI50 (NCI-H460) was > 100 µM (inactive). For the same molecule, the GI50 (NCI-H522) was > 100 µM (inactive), the GI50 (NCI/ADR-RES) was > 100 µM (inactive) and the GI50 (OVCAR-3) was > 100 µM (inactive). The GI50 (OVCAR-4) was > 100 µM (inactive), the GI50 (OVCAR-5) was > 100 µM (inactive) and the GI50 (OVCAR-8) was > 100 µM (inactive). For the same molecule, the GI50 (PC-3) was > 100 µM (inactive), the GI50 (RPMI-8226) was > 100 µM (inactive) and the GI50 (SF-268) was > 100 µM (inactive). The GI50 (SF-295) was > 100 µM (inactive), the GI50 (SF-539) was > 100 µM (inactive) and the GI50 (SK-MEL-28) was > 100 µM (inactive). For the same molecule, the GI50 (SK-MEL-2) was > 100 µM (inactive), the GI50 (SK-MEL-5) was > 100 µM (inactive) and the GI50 (SK-OV-3) was > 100 µM (inactive). For the same molecule, the GI50 (SN12C) was > 100 µM (inactive), the GI50 (SNB-19) was > 100 µM (inactive) and the GI50 (SNB-75) was > 100 µM (inactive). The GI50 (SR) was > 100 µM (inactive), the GI50 (SW-620) was > 100 µM (inactive) and the GI50 (T47D) was > 100 µM (inactive). The GI50 (TK-10) was > 100 µM (inactive), the GI50 (U-251) was > 100 µM (inactive) and the GI50 (UACC-257) was > 100 µM (inactive). The GI50 (UACC-62) was > 100 µM (inactive) and the GI50 (UO-31) was 28.6 µM (inactive).
`CCCCOC(=O)Nc1ccc(S(=O)(=O)Nc2ccccc2Cl)cc1` was tested, and the GI50 (786-0) was 21.5 µM (inactive), the GI50 (A498) was 12.8 µM (inactive) and the GI50 (A549) was 32.5 µM (inactive). The GI50 (ACHN) was 27.8 µM (inactive), the GI50 (BT-549) was 22.5 µM (inactive) and the GI50 (CAKI-1) was 19.5 µM (inactive). For the same molecule, the GI50 (CCRF-CEM) was 19.2 µM (inactive), the GI50 (COLO 205) was 20.7 µM (inactive) and the GI50 (DU-145) was 30.3 µM (inactive). For the same molecule, the GI50 (EKVX) was 20.7 µM (inactive), the GI50 (HCC 2998) was 14.1 µM (inactive) and the GI50 (HCT-116) was 22.4 µM (inactive). The GI50 (HCT-15) was 21.3 µM, the GI50 (HL-60) was 16.9 µM (inactive) and the GI50 (HOP-62) was 21.7 µM (inactive). The GI50 (HOP-92) was 13.7 µM (inactive), the GI50 (HT-29) was 21 µM (inactive) and the GI50 (Hs-578T) was 21.5 µM (inactive). The GI50 (IGROV-1) was 21.7 µM (inactive), the GI50 (K562) was 17.5 µM (inactive) and the GI50 (KM12) was 24 µM (inactive). The GI50 (LOX IMVI) was 18.1 µM (inactive), the GI50 (M14) was 19.8 µM (inactive) and the GI50 (MCF7) was 19.2 µM (inactive). For the same molecule, the GI50 (MDA-MB-231) was 21 µM (inactive), the GI50 (MDA-MB-435) was 18.8 µM (inactive) and the GI50 (MDA-N) was 17.6 µM (inactive). The GI50 (MOLT-4) was 12.6 µM (inactive), the GI50 (Malme-3M) was 24.8 µM (inactive) and the GI50 (NCI-H23) was 25.6 µM (inactive). The GI50 (NCI-H460) was 18.2 µM (inactive), the GI50 (NCI-H522) was 18.5 µM (inactive) and the GI50 (NCI/ADR-RES) was 18.2 µM (inactive). The GI50 (OVCAR-3) was 19.1 µM (inactive), the GI50 (OVCAR-4) was 12.4 µM (inactive) and the GI50 (OVCAR-5) was 25.8 µM (inactive). For the same molecule, the GI50 (OVCAR-8) was 21.3 µM (inactive), the GI50 (PC-3) was 24.9 µM (inactive) and the GI50 (RPMI-8226) was 16.3 µM (inactive). For the same molecule, the GI50 (RXF 393) was 21.3 µM (inactive), the GI50 (SF-268) was 16.9 µM (inactive) and the GI50 (SF-295) was 17.3 µM (inactive). For the same molecule, the GI50 (SF-539) was 17.6 µM (inactive), the GI50 (SK-MEL-28) was 19.6 µM (inactive) and the GI50 (SK-MEL-2) was 18.1 µM (inactive). The GI50 (SK-MEL-5) was 12 µM (inactive), the GI50 (SK-OV-3) was 16.8 µM (inactive) and the GI50 (SN12C) was 21.2 µM (inactive). For the same molecule, the GI50 (SNB-19) was 22.6 µM (inactive), the GI50 (SR) was 4.04 µM (inactive) and the GI50 (SW-620) was 14.1 µM (inactive). For the same molecule, the GI50 (T47D) was 26.5 µM (inactive), the GI50 (TK-10) was 21.6 µM (inactive) and the GI50 (U-251) was 17.5 µM (inactive). For the same molecule, the GI50 (UACC-257) was 31.3 µM (inactive), the GI50 (UACC-62) was 17.1 µM (inactive) and the GI50 (UO-31) was 25.6 µM (inactive).
